Experimental data from US11850233B2, “Reduced adaptive microbial resistance treatment for flesh eating disease (necrotizing fasciitis)” (priority 2019, dated 2023).
“Also recorded” adds a separate entry of the source. Where a name gives a salt, the structure may show the parent alone. Read-outs that look alike come from different tables or passages of the source.

Columns and labels:
E. coli (BL21) bacteria [1] = test: In vitro inhibition of E. coli (BL21) growth on LB agar plates, dark or irradiated; assay type: cell-based
From the text: E. coli (BL21) bacteria was used as a model prokaryote to determine the efficacy of the inventive treatment composition to kill bacteria. The effect of inventive composition as well as each individual component of the composition were all tested to determine the effect each on the growth of E. coli bacteria. The procedure described in Herschmann, R. J. et al (2019) “Effect of toxic metal ions on photosensitized singlet oxygen generation for photodegradation of polyaromatic hydrocarbon derivatives and inactivation of Escherichia coli” Photochemistry and Photobiology 86, 890-894, was followed. The bacterial cultures were grown in an incubator in Luria-Broth (LB)—Lennox formulation at 28° C. with shaking at 250 rpm. Once the cells reached the beginning of their exponential growth phase (A600=0.2), one milliliter aliquots were removed and centrifuged. The resulting pellets were washed once with sterile water and then resuspended in 500.0 μL of sterile water. The resuspended bacteria were mixed with 200.0 μL of stock solutions of the components or the multifunctional was selected for testing at 0.3 ppm for all components of the composition. The experimental samples were irradiated in a Rayonet photoreactor for 10 minutes or covered and kept in the dark for 10 minutes. Controls were prepared using 200.0 μL of sterile water were also prepared with one control being irradiated and the other control being kept in the dark. All samples were then briefly vortexed to thoroughly mix samples, and 20.0 μL aliquots of each sample were evenly spread using standard techniques over individual LB agar petri dishes. The plates were inverted and incubated at 28° C. for 48 hours. Results are reported as observed effects of the composition and each component of the composition on the inhibition of the growth of E. coli on the plates.

[2] = Rate of DHN photooxidation under visible light irradiation (absorption at 300 nm); assay type: physicochemical; details: Zinc (II) 0.000 ppm, TMPyP 3.67×10^−7 M, DHN 1.2×10^−4 M, aerobic aqueous
Procedure: Quartz cuvettes with 1 cm path-length and 3.0 mL volume were used for all measurements.
For singlet oxygenation experiment, a 3.0 mL solution of DHN (1.2×10^−4 M) and TMPyP (3.67×10^−7 M) was prepared by mixing 36 μL of 1×10^−2 M of DHN standard solution and 1.10 μL of 1×10^−3 M of TMPyP standard solution with ultrapure water at room temperature in an open atmosphere. Singlet oxygenation of sample was conducted in a Rayonet photoreactor for approximately 10 min at 28° C. and the photooxidation of DHN was monitored by recording a decrease in UV-Vis absorption of DHN at 300 nm for 10 min in 2 min intervals.

E. coli (BL21) bacteria [3] = details: cited from earlier work
[4] = test system: MCF-7 breast cancer cells; test: MTS assay of MCF-7 breast cancer cell proliferation, dark or irradiated; assay type: cell-based; details: aerobic, 0.3 ppm, after 48 hours
Procedure: For breast cancer cells experiment, a stored sample was taken and incubated for 3 to 5 minutes until room temperature. 5 mL of supplemented medium was placed in a 15 mL centrifuge tube. The contents in the cryotube were transferred into the 15 mL centrifuge tube containing the 5 mL medium. This mixture was centrifuged for 5 minutes at 1000 rpm. The supernatant was removed, and 3 mL of the medium was added to the cells and mixed thoroughly. From this mixture, 1 mL was placed into three separate culture flasks with 11 mL of medium each. These flasks were placed in a humidified atmosphere of 32° C. and 5% CO2. After incubation, cells were rinsed with PBS and aspirated. Cells were washed with trypsin, covered and placed in the incubator for five minutes. Solutions were then mixed with 4 mL of medium and subsequently transferred into a 15 mL centrifuge tube to be centrifuged for 5 minutes at 1000 rpm. The supernatant was then aspirated, and cells were re-suspended in 3-10 mL of medium. From here, 1 mL aliquots of this mixture were placed with 11 mL of medium in a new flask. Lastly, these flasks were placed in humidified atmosphere of 32° C. and 5% CO2. An aliquot of the stock solution (i.e. 9.5 mL) was removed from the stock culture and combined with an appropriate amount of regular medium (i.e. 220.5 mL). After proper mixing the stock with fresh media, 3 mL of the mixture were placed in each of the wells in a 6-well plate. Using the manufacturer's protocol, a MTS assay was performed to assess cell proliferation and toxicity of the multifunctional treatment composition. The concentrations of inventive treatment composition and its individual components were 0.3 ppm, until adjusted. The proliferation(s) of cells were compared to a control of cells alone. The growth the control was standardized as 100% growth and the cell proliferation in the presence of the treatment composition was observed and reported on the bases of percent when compared to the control. Similar procedure was followed for light experiment where samples were irradiated in a Rayonet photoreactor for 10 minutes.

[5] = known value of the standard, prior art; cited from earlier work
[6] = dark, aerobic, 0.3 ppm (Example 1 composition: Zn(II) 0.15 ppm + TMPyP 0.15 ppm), 10 minutes, plates after 48 hours
[7] = visible light irradiation 10 minutes, aerobic, 0.3 ppm (composition: Zn(II) 0.15 ppm + TMPyP 0.15 ppm), plates after 48 hours

[Fe+2] [Iron(II)]
inhibition of growth of E. coli (E. coli (BL21) bacteria [1]; [6]): zero inhibition
inhibition of growth of E. coli (E. coli (BL21) bacteria [1]; [7]): zero inhibition

C[n+]1ccc(-c2c3nc(c(-c4cc[n+](C)cc4)c4ccc([nH]4)c(-c4cc[n+](C)cc4)c4nc(c(-c5cc[n+](C)cc5)c5ccc2[nH]5)C=C4)C=C3)cc1.[Cl-].[Cl-].[Cl-].[Cl-] [TMPyP, meso-tetra(N-methyl-4-pyridyl) porphyrin tetrachloride]
inhibition of growth of E. coli bacteria (E. coli (BL21) bacteria [1]): 100%
Rate Constant, k of DHN photooxidation [2]: 0.0001601 s⁻¹
E. coli growth inhibition reported by others (E. coli (BL21) bacteria [3]; light, aerobic conditions, Khurana et al 2019): inhibits E. coli growth
inhibition of growth of MCF-7 breast cancer cells ([4]; dark): almost no inhibition
inhibition of growth of MCF-7 breast cancer cells ([4]; visible light irradiation): nearly complete inhibition

[Zn+2] [Zn(II) ions, zinc (II) sulfate]
inhibition of growth of E. coli (E. coli (BL21) bacteria [1]): essentially no noticeable inhibition; also recorded: almost no inhibition
inhibition of growth of MCF-7 breast cancer cells ([4]; dark): no inhibition effect
inhibition of growth of MCF-7 breast cancer cells ([4]; visible light irradiation): little or no inhibition effect

CC1(C)S[C@@H]2[C@H](NC(=O)[C@H](N)c3ccccc3)C(=O)N2[C@H]1C(=O)O [ampicillin, Ampicillin]
inhibition of growth of E. coli (E. coli (BL21) bacteria [1]; [6]): Almost no inhibition

O=C(N[C@H](CO)[C@H](O)c1ccc([N+](=O)[O-])cc1)C(Cl)Cl [chloramphenicol, Chloramphenicol]
inhibition of growth of E. coli (E. coli (BL21) bacteria [1]; [6]): Almost no inhibition

[Co+2] [cobalt (II)]
inhibition of growth of E. coli (E. coli (BL21) bacteria [1]): zero inhibition

[Mn+2] [manganese(II)]
inhibition of growth of E. coli (E. coli (BL21) bacteria [1]; [6]): zero inhibition
inhibition of growth of E. coli (E. coli (BL21) bacteria [1]; [7]): zero inhibition

CN(C)c1ccc2nc3ccc(=[N+](C)C)cc-3sc2c1 [methylene blue]
singlet oxygen quantum yield (ϕΔ) [5]: 0.52

meso-tetrakis(N-methyl-4-pyridyl) porphyrin with Zn metal stably bound into the core of porphyrin [ZnTMPyP]
inhibition of growth of E. coli (E. coli (BL21) bacteria [1]; [6]): almost no inhibition
inhibition of growth of E. coli (E. coli (BL21) bacteria [1]; [7]): inhibition of growth
E. coli killing / growth inhibition reported earlier (E. coli (BL21) bacteria [3]; dark conditions, tests by others or PCT/US2018/024338): not effective
